Experimental data published in US11046697B2, “Compounds and compositions useful for treating disorders related to NTRK” (BLUEPRINT MEDICINES CORPORATION, priority 2015, dated 2021).
Like-named read-outs stand apart in the source and are kept apart here.

How the values were obtained:
[1] = tested on: KM12 Cliff (G595R) cell line; experiment: NTRK G595R mutant cellular assay (CellTiter-Glo growth inhibition); format: cell-based; conditions: for IC50: 72 hr, CellTiter-Glo
Method in brief: (§1)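 KM12 (TPM3-NTRK1 fusion) or KM12 Cliff (G595R) cells at 1000 cells/well in 10% FBS media were dosed with compounds at varying concentrations in duplicate after overnight plating.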

wild type NTRK1 enzyme = target: T1, wild type NTRK1 enzyme (Homo sapiens, UniProt P04629); experiment: NTRK1 Wild Type Assay at 1 mM ATP; format: biochemical
T1 construct: purchased BPS Bioscience 40280
Experimental: NTRK1 Wild Type Assay at 1 mM ATP
The reaction was stopped by the addition of 70 μL of Stop buffer (100 mM HEPES pH 7.5, 0.015% Brij 35, 35 mM EDTA and 0.2% of Coating Reagent 3 (Caliper Lifesciences)). The plate was then read on a Caliper EZReader 2 (protocol settings: −1.7 psi, upstream voltage −500, downstream voltage −3000, post sample sip 35s).

[2] = tested on: KM12 wild type colon carcinoma cell line harboring the TPM3-NTRK1 fusion protein; experiment: NTRK wild type cellular assay (CellTiter-Glo growth inhibition); format: cell-based; conditions: for IC50: 72 hr, CellTiter-Glo, read-out: KM12 (WT) IC50
Method in brief: as §1

[3] = 1 mM ATP, read-out: Enz NTRK1 IC50

T1 sequence (P04629 440-796 limits assumed): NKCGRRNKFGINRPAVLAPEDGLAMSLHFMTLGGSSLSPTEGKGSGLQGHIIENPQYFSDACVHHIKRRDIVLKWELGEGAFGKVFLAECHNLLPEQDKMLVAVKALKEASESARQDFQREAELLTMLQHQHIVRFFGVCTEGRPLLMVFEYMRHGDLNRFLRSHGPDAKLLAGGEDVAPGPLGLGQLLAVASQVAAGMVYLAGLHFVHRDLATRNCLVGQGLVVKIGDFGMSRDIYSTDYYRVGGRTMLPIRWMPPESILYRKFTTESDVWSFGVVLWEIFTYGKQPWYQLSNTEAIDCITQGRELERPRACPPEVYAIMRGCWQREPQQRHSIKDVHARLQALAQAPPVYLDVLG

Row | SMILES | IC50 (wild type NTRK1 enzyme; [3]) | IC50 ([2]; Homo sapiens, KM12, 72 h) | IC50 [2] | IC50 (wild type NTRK1 enzyme; wild-type NTRK enzyme, read-out: NTRK wt Enzyme Assay IC50) | GI50 ([2]; wild-type NTRK fusion cells, read-out: NTRK wt Cellular GI50) | IC50 ([1]; Homo sapiens, KM12, 72 h) | IC50 [1] | GI50 ([1]; G595R mutant NTRK fusion cells)
1 | O=C(c1n[nH]c2ncnc(N[C@@H]3C[C@@H](C(F)F)C[C@H]3O)c12)N1C[C@@H](F)C[C@@H]1c1cc(F)ccc1F [Compound 226, (4-(((1R,2R,4R)-4-(difluoromethyl)-2-hydroxycyclopentyl)amino)-1H-pyrazolo[3,4-d]pyrimidin-3-yl)((2R,4S)-2-(2,5-difluorophenyl)-4-fluoropyrrolidin-1-yl)methanone] | < 10 nM | < 10 nM | – | – | – | < 10 nM | – | –
2 | CN(Cc1cc(F)ccc1OC(F)(F)F)C(=O)c1n[nH]c2ncnc(NC3COCC(O)C3O)c12 (stereo not drawn) [Compound 228] | 10 to 100 nM | – | 10 to 100 nM | – | – | – | 10 to 100 nM | –
3 | O=C(c1n[nH]c2ncnc(N[C@@H]3CN(C4COC4)C[C@H]3O)c12)N1C[C@@H](F)C[C@@H]1c1cc(F)ccc1F [Compound 229, ((2R,4S)-2-(2,5-difluorophenyl)-4-fluoropyrrolidin-1-yl)(4-(((3R,4R)-4-hydroxy-1-(oxetan-3-yl)pyrrolidin-3-yl)amino)-1H-pyrazolo[3,4-d]pyrimidin-3-yl)methanone] | < 10 nM | < 10 nM | – | – | – | < 10 nM | – | –
4 | N#Cc1cc(F)cc([C@H]2C[C@H](F)CN2C(=O)c2n[nH]c3ncnc(N[C@@H]4CCCC(F)(F)[C@H]4O)c23)c1 [Compound 230] | < 10 nM | 10 to 100 nM | – | – | – | 10 to 100 nM | – | –
5 | O=C(c1n[nH]c2ncnc(N[C@@H]3CCCC(F)(F)[C@H]3O)c12)N1C[C@@H](F)C[C@@H]1c1cncc(F)c1 [Compound 231] | 10 to 100 nM | 10 to 100 nM | – | – | – | 100 to 1000 nM | – | –
6 | CC(C)(O)[C@H]1C[C@@H](O)[C@H](Nc2ncnc3[nH]nc(C(=O)N4C[C@@H](F)C[C@@H]4c4cc(F)ccc4F)c23)C1 [Compound 232, ((2R,4S)-2-(2,5-difluorophenyl)-4-fluoropyrrolidin-1-yl)(4-(((1R,2R,4R)-2-hydroxy-4-(2-hydroxypropan-2-yl)cyclopentyl)amino)-1H-pyrazolo[3,4-d]pyrimidin-3-yl)methanone] | < 10 nM | < 10 nM | – | – | – | < 10 nM | – | –
7 | O=C(c1n[nH]c2ncnc(N[C@@H]3C=C[C@@H](O)[C@H]3O)c12)N1C[C@@H](F)C[C@@H]1c1cc(F)ccc1OC(F)F [Compound 235] | < 10 nM | – | 10 to 100 nM | – | – | – | 10 to 100 nM | –
8 | O=C(c1n[nH]c2ncnc(N[C@H]3[C@H](O)[C@H](O)[C@@H]4C[C@@H]43)c12)N1C[C@@H](F)C[C@@H]1c1cc(F)ccc1OC(F)F [Compound 239] | < 10 nM | – | < 10 nM | – | – | – | 10 to 100 nM | –
9 | O=C(c1n[nH]c2ncnc(N[C@@H]3CC[C@@H](O)[C@H]3O)c12)N1C[C@@H](F)C[C@@H]1c1cc(F)ccc1OC(F)(F)F [Compound 240] | < 10 nM | < 10 nM | – | – | – | < 10 nM | – | –

The next lines start with results.

Row | IC50 (wild type NTRK1 enzyme; [3]) | IC50 ([2]; Homo sapiens, KM12, 72 h) | IC50 [2] | IC50 (wild type NTRK1 enzyme; wild-type NTRK enzyme, read-out: NTRK wt Enzyme Assay IC50) | GI50 ([2]; wild-type NTRK fusion cells, read-out: NTRK wt Cellular GI50) | SMILES | IC50 ([1]; Homo sapiens, KM12, 72 h) | IC50 [1] | GI50 ([1]; G595R mutant NTRK fusion cells)
10 | < 10 nM | – | < 10 nM | – | – | O=C(c1n[nH]c2ncnc(N[C@@H]3CC(F)(F)[C@@H](O)[C@H]3O)c12)N1C[C@@H](F)C[C@@H]1c1cc(F)ccc1F [Compound 227] | – | < 10 nM | –
11 | < 10 nM | – | < 10 nM | – | – | COc1c(F)cc(F)cc1[C@H]1C[C@H](F)CN1C(=O)c1n[nH]c2ncnc(N[C@H]3[C@H](O)[C@H](O)[C@@H]4C[C@@H]43)c12 [Compound 233] | – | < 10 nM | –
12 | < 10 nM | – | < 10 nM | – | – | COc1c(F)cc(F)cc1C1CC(F)CN1C(=O)c1n[nH]c2ncnc(NC3CCCC(O)C3O)c12 (stereo not drawn) [Compound 234] | – | < 10 nM | –
13 | < 10 nM | < 10 nM | – | – | – | COc1c(F)cc(F)cc1[C@H]1C[C@H](F)CN1C(=O)c1n[nH]c2ncnc(N[C@@H]3COC[C@@H](O)[C@H]3O)c12 [Compound 236] | 10 to 100 nM | – | –
14 | < 10 nM | 10 to 100 nM | – | – | – | O=C(c1n[nH]c2ncnc(N[C@@H]3CC[C@@H](O)[C@H]3O)c12)N1C[C@@H](F)C[C@@H]1c1cc(F)ccc1OC(F)F [Compound 237] | 10 to 100 nM | – | –
15 | < 10 nM | – | < 10 nM | – | – | O=C(c1n[nH]c2ncnc(NC3CCOCC3O)c12)N1CC(F)CC1c1cc(F)ccc1OC(F)(F)F (stereo not drawn) [Compound 241] | – | < 10 nM | –
16 | < 10 nM | – | < 10 nM | – | – | O=C(c1n[nH]c2ncnc(N[C@H]3[C@H](O)[C@H](O)[C@@H]4C[C@@H]43)c12)N1C[C@@H](F)C[C@@H]1c1cc(F)ccc1OC(F)(F)F [Compound 242] | – | < 10 nM | –
17 | < 10 nM | – | < 10 nM | – | – | O=C(c1n[nH]c2ncnc(NC3CCCC(O)C3O)c12)N1CC(F)CC1c1cc(F)ccc1OC(F)(F)F (stereo not drawn) [Compound 243] | – | < 10 nM | –
18 | < 10 nM | < 10 nM | – | – | – | O=C(c1n[nH]c2ncnc(N[C@@H]3COC[C@@H](O)[C@H]3O)c12)N1C[C@@H](F)C[C@@H]1c1cc(F)ccc1OC(F)(F)F [Compound 244] | < 10 nM | – | –
19 | – | – | – | 2.3 nM | 32 nM | CC(C)NC(=O)C1CCC(n2c(NC(=O)c3ccc(F)cc3)nc3ccc(CN4CCC(C(C)(C)O)CC4)cc32)CC1 (stereo not drawn) [TSR-011] | – | – | 12000 nM
